Experimental data published in patent publication US5026836A, “6-sulfenamide, 6-sulfinamide and 6-sulfonamide purines, purine nucleosides, purine nucleotides, pharmaceutical compositions, and processes of making” (priority 1988, dated 1991).
“Also recorded” adds a separate entry of the source. Like-named read-outs stand apart in the source and are kept apart here.

What was measured:
[1] = Solubility (maximum solubility); assay type: physicochemical
[2] = Toxicity / maximum tolerated dosage in mice; assay type: in vivo; conditions: mouse, in vivo, single QD day 1 ip, L1210-inoculated BDF1 mice, read-out: Max. tolerated dosage
Description: In Example N other compounds of the invention were tested against L1210 cells. […] Activity in Table 14-a is tabulated as both increases in life span and as cells surviving treatment and that in table 14-b as T/C.

[3] = test system: L1210 cells; test: Life span of BDF1 mice inoculated ip with 10^6 L1210 leukemia cells; assay type: in vivo, mouse
Description: As illustrative examples of use of the compounds of the invention the following examples are given. […] These standard tests utilize protocols developed under the auspices of the Developmental Therapeutics Program, Division of Cancer Treatment, National Cancer Institute, Bethesda, Md., U.S.A. Except as otherwise indicated the tests conform to these protocols and are evaluated utilizing criteria defined by the protocols.
(§1) Values below 25% are considered capable of producing effective therapy, those below 10% are considered good and those below 5% are considered very good. This expresses the percent of the cells which survived treatment based upon the original cells in the inoculum. Those tests expressed as increases in life span (% ILS) indicate the increased life span of the drug treated group compared to a control group.
(§2) As an indicator of reproducible activity, compounds of the invention and other known cancer chemotherapeutic agents were screened against L1210 lymphoid leukemia in vivo utilizing the mouse as a test species. Normal NCI protocols for this test require 10^5 seed cells of the L1210 cell line.
Cytosine Arabinoside must be given every three hours.
Mice were inoculated intraperitoneally on day 0 with a million cells of murine leukemia L1210. Drug was given qd days 1, 4 and 7. Increased life span is the mean increase in the treated group presented as a percentage of the mean life span of control mice.
Mice were inoculated intraperitoneally on day 0 with a million cells of murine leukemia L1210. Drugs were given qd days 1, 3, 5 and 7. Increased life span is presented as a percentage of the mean life span of control mice.

[4] = test system: L1210 cells; test: Bioassay of viable L1210 cells in brain after intracranial inoculation and ip drug; assay type: in vivo, mouse; conditions: for intracranial activity: intracranial L1210; for Activity against I.C. L1210 cells, Cell Kill: ip dosage: Compound 18 22 mg/kg, Compound 19 173 mg/kg, Compound 20 62 mg/kg; for crossing of blood brain barrier / CNS penetration (words): mouse, in vivo; for Residual cells (% of control brain): 24 hr after single ip dose (mg/kg): Methotrexate 12, Adriamycin 3, 6-Mercaptopurine 160, Cytosine Arabinoside 1200, Cyclophosphamide 140, Compound 19 173, Tiazofurin 1200, BCNU 20
Source text: BDF1 mice were inoculated intracranially on day 0 with 1×10^5 L1210 cells. […] 24 hr after drug delivery the brains were collected, homogenized, and injected ip into untreated mice. Each mouse received the equivalent of half a brain. Thereafter, life span was monitored and, using inoculum-response data as a base of comparison, estimates were made of the numbers of viable cells in treated and control brains.

[5] = test system: L1210/6MP, 6TG, 6TGR cells; test: Life span of mice inoculated with L1210 resistant to 6MP, 6TG, 6TGR; assay type: in vivo, mouse; conditions: for activity against drug resistant cells (words): mouse, in vivo
[6] = test system: drug resistant cell lines; test: Generation of drug resistant cell lines
[7] = test system: L1210 cells; test: L1210 cells surviving treatment (% of original inoculum); assay type: in vivo, mouse; conditions: single QD day 1 ip
Source text: as §1
as §2, with “line. However for the purposes of tests with the L1210 cell line in testing the compounds of the invention for antitumor activity, a log greater, i.e. 10^6 cells were utilized.” for “line.”
Tables 2-a and 2-b illustrate a dose response for Compound 19 against L1210 inoculated mice expressed as both increased life span compared to control and as the number of cells of the original inoculum surviving drug treatment. As is evident from the various regimens of drug treatment shown in Tables 2-a and 2-b, effective therapeutic effects are noted and a dose response to Compound 19 is evident. […] Cytosine Arabinoside must be given every three hours. Test results are given utilizing standard protocols based on mean survival time and are expressed as T/C percentages (treated animals/control animals).

[8] = test system: Human Colon Adenocarcinoma CX-1; conditions: data from Goldin et al 1981; activity indicated at ≤20; cited from earlier work
[9] = test system: drug resistant cell lines; conditions: background knowledge; cited from earlier work
[10] = test system: adenocarcinoma; conditions: background; cited from earlier work

NS(=O)(=O)c1ncnc2c1ncn2[C@H]1C[C@H](O)[C@@H](CO)O1 [Compound 16, 9-(2-Deoxy-β-D-erythro-pentofuranosYl)-9H-purine-6-sulfonamide]
Max. sol. dosage [1]: 800 mg/kg
MTD ([2]; ip): 173 mg/kg

Nc1nc(S(N)(=O)=O)c2ncn([C@@H]3O[C@H](CO)[C@@H](O)[C@H]3O)c2n1 [Compound 20, 2-amino-9-β-D-ribofuranosyl-9H-purine-6-sulfonamide]
oral activity (words) [3]: not present
Activity against I.P. L1210 cells, T/C ([3]; oral 22 mg/kg, bid days 1,4,7): 103.3%
Activity against I.P. L1210 cells, T/C ([3]; oral 37 mg/kg, bid days 1,4,7): 103.3%
Activity against I.P. L1210 cells, T/C ([3]; oral 62 mg/kg, bid days 1,4,7): 103.3%
oral activity (words) ([3]; listed as 6-sulfonamide analog): lack of oral activity
intracranial activity [4]: no intracranial activity is seen
Activity against I.C. L1210 cells, Cell Kill [4]: 0.0 x
crossing of blood brain barrier / CNS penetration (words) [4]: lack of oral activity and CNS penetration
Activity against I.P. L1210 cells resistant to 6MP, 6TG, 6TGR, T/C ([5]; 22 mg/kg, bid days 1,4,7): 106.7%
Activity against I.P. L1210 cells resistant to 6MP, 6TG, 6TGR, T/C ([5]; 37 mg/kg, bid days 1,4,7): 130.0%
Activity against I.P. L1210 cells resistant to 6MP, 6TG, 6TGR, T/C ([5]; 62 mg/kg, bid days 1,4,7): 163.3%
activity against drug resistant cells (words) [5]: active
Max. sol. dosage [1]: 62 mg/kg
MTD ([2]; ip): 62 mg/kg

NS(=O)(=O)c1ncnc2c1ncn2[C@@H]1O[C@H](CO)[C@@H](O)[C@H]1O [Compound 8, 9-β-D-Ribofuranosyl-9H-purine-6-sulfonamide]
Max. sol. dosage [1]: 480 mg/kg
MTD ([2]; ip): 173 mg/kg

NSc1nc(N)nc2c1ncn2[C@@H]1O[C@H](CO)[C@@H](O)[C@H]1O [Compound 18, 2-amino-9-β-D-ribofuranosyl-9H-purine-6-sulfenamide]
oral activity (words) [3]: Oral activity is seen
Activity against I.P. L1210 cells, T/C ([3]; oral 8 mg/kg, qd day 1): 147.0%
Activity against I.P. L1210 cells, T/C ([3]; oral 13 mg/kg, qd day 1): 147.0%
Activity against I.P. L1210 cells, T/C ([3]; oral 22 mg/kg, qd day 1): 153.0%
% ILS ([3]; single agent day 1, Compound 19 173 mg/kg, Compound 18 22 mg/kg (Table 12)): 51%
intracranial activity [4]: active intracranially
Activity against I.C. L1210 cells, Cell Kill [4]: 57.3 x
crossing of blood brain barrier / CNS penetration (words) [4]: effectively cross the blood brain barrier
Activity against I.P. L1210 cells resistant to 6MP, 6TG, 6TGR, T/C ([5]; 22 mg/kg, qd day 1): 93.8%
activity against drug resistant cells (words) [5]: shows no activity
Max. sol. dosage [1]: 22 mg/kg
MTD ([2]; ip): 22 mg/kg
generation of drug resistant cell lines (words) [6]: does generate drug resistant cell lines; also recorded: generates drug resistant cells

NSc1ncnc2c1ncn2[C@@H]1O[C@H](CO)[C@@H](O)[C@H]1O [Compound 6, 9-β-D-Ribofuranosyl-9H-purine-6-sulfenamide]
Max. sol. dosage [1]: 480 mg/kg
MTD ([2]; ip): 480 mg/kg

Nc1nc([S+](N)[O-])c2ncn([C@@H]3O[C@@H]4COP(=O)(O)O[C@H]4[C@H]3O)c2n1 (stereo partly drawn) [Compound 30, 2-Amino-9-β-D-ribofuranosylpurine-6-sulfinamide 3',5'-cyclic phosphate]
% ILS ([3]; single QD day 1 ip): 59%
Cells surviving treatment (% of day 0 innoc.) [7]: 1.7%
Max. sol. dosage ([1]; in water): 288 mg/kg
MTD [2]: 288 mg/kg

NSc1nc(N)nc2c1ccn2[C@H]1C[C@H](O)[C@@H](CO)O1 [Compound 38, 2-Amino-7-(2-deoxy-β-D-erythro-pentofuranosyl)pyrrolo[2,3-d]pyrimidine-4-sulfenamide]
Max. sol. dosage [1]: 173 mg/kg
MTD ([2]; ip): 173 mg/kg

Nc1nc([S+](N)[O-])c2ncn([C@H]3C[C@H](O)[C@@H](CO)O3)c2n1 (stereo partly drawn) [Compound 23, 2-amino-9-(2-deoxy-β-D-erythro-pentofuranosyl)-9H-purine-6-sulfinamide]
in vivo antitumor activity ([3]; mouse, in vivo): good activity
Max. sol. dosage [1]: 480 mg/kg
water solubility [1]: increased water solubility
MTD ([2]; ip): 173 mg/kg

NSc1nc(N)nc2c1ncn2[C@H]1C[C@H](O)[C@@H](CO)O1 [Compound 22, 2-Amino-9-(2-deoxy-β-D-erythro-pentofuranosyl)-9H-purine-6-sulfenamide]
Max. sol. dosage [1]: 173 mg/kg
MTD ([2]; ip): 173 mg/kg

Sc1ncnc2nc[nH]c12 [6-Mercaptopurine]
Residual cells (% of control brain) [4]: 37%
Activity rating δT/δC [8]: 99
inducement of drug resistant cell lines [9]: inducement of drug resistant cell line occurs
activity against adenocarcinoma [10]: highly active against adenocarcinoma

Nc1ccn([C@@H]2O[C@H](CO)[C@@H](O)[C@@H]2O)c(=O)n1 [Cytosine Arabinoside]
Residual cells (% of control brain) [4]: 15%
Activity rating δT/δC [8]: 73
inducement of drug resistant cell lines [9]: inducement of drug resistant cell line occurs

NS(=O)(=O)c1ncnc2c1ncn2[C@@H]1O[C@H](CO)[C@@H](O)[C@@H]1O [Compound 12, 9-β-D-Arabinofuranosyl-9H-purine-6-sulfonamide]
Max. sol. dosage [1]: 173 mg/kg
MTD ([2]; ip): 173 mg/kg

N[S+]([O-])c1ncnc2c1ncn2[C@H]1C[C@H](O)[C@@H](CO)O1 (stereo partly drawn) [Compound 15, 9-(2-Deoxy-β-D-erythro-pentofuranosyl)-9H-ourine-6-sulfinamide]
% ILS ([3]; single QD day 1 ip): 33%
Cells surviving treatment (% of day 0 innoc.) [7]: 16%
Max. sol. dosage [1]: 800 mg/kg
MTD ([2]; ip): 104 mg/kg

NSc1nc(N)nc2c1ncn2[C@@H]1O[C@@H]2COP(=O)(O)O[C@H]2[C@H]1O [Compound 29, 2-Amino-9-β-D-ribofuranosylpurine-6-sulfenamide 3',5'-cyclic phosphate]
% ILS ([3]; single QD day 1 ip): 59%
Cells surviving treatment (% of day 0 innoc.) [7]: 1.7%
Max. sol. dosage ([1]; in water): 480 mg/kg
MTD [2]: 480 mg/kg

NSc1ncnc2c1ncn2[C@H]1C[C@H](O)[C@@H](CO)O1 [Compound 14, 9-(2-Deoxy-β-D-erythro-pentofuranosyl)-9H-purine-6-sulfenamide]
Max. sol. dosage [1]: 800 mg/kg
MTD ([2]; ip): 288 mg/kg
